Experimental data as given in the supplement of paper PMC10949913.

How the values were obtained:
Conditions in all cases: 48 h
[1] = tested on: CU-ACC2; assay: area under concentration-response curve (viability) (AUC (a.u.)); higher = less active
Summary of the method: (§1)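 Three adrenocortical carcinoma cell lines were exposed for 48 h to library compounds at 11 concentrations in 1,536-well plates, then read by CellTiter-Glo luminescence. Signals were scaled per plate against vehicle and empty-well controls. From fitted concentration-response curves of inhibitory or non-responding classes alone, AC50 and area under the curve were obtained.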

[2] = tested on: CU-ACC1; assay: as above
Summary of the method: as §1

[3] = tested on: NCI-H295R; assay: as above
Summary of the method: as §1

[4] = tested on: CU-ACC2; assay: AC50 viability; higher = less potent
Summary of the method: as §1

[5] = tested on: CU-ACC1; assay: AC50 viability; higher = less potent
Summary of the method: as §1

[6] = tested on: NCI-H295R; assay: AC50 viability; higher = less potent
Summary of the method: as §1

SMILES | area under concentration-response curve [1] | area under concentration-response curve [2] | area under concentration-response curve [3] | AC50 viability [4] [µM] | AC50 viability [5] [µM] | AC50 viability [6] [µM]
Cc1cc(O)c(-c2ccc([C@@H](C)CN(C)C)cc2)c2c1[nH]c(=O)c1sccc12 | 346 | 311 | 305 | 0.166 | 0.235 | 0.295
CC(C)(O)c1cc2nc(-c3cnc(N)nc3)nc(N3CCOCC3)c2s1 | 379 | 434 | 423 | 2.63 | 1.32 | 1.05
O=C(Nc1cc(C(F)(F)F)cc(C(F)(F)F)c1)c1cc(Cl)ccc1O | 493 | 429 | 463 | 1.86 | 2.63 | 2.95
Cc1ccc([S+](=O)([O-])Nc2cc(Cl)ccc2C(=O)Nc2nc(-c3ccccc3)cs2)cc1 | 306 | 362 | 340 | 0.263 | 9.34 | 2.63
Fc1ccc(C(OCCN2CCN(CCCc3ccccc3)CC2)c2ccc(F)cc2)cc1 | 490 | 471 | 423 | 18.6 | 16.6 | 14.8
COc1cccc2c1C(=O)c1c(O)c3c(c(O)c1C2=O)C[C@@](O)(C(C)=O)C[C@@H]3O[C@H]1C[C@H](N)[C@H](O)[C@H](C)O1 | 350 | 305 | 369 | 2.35 | 2.95 | 4.68
CC[S+]([O-])(=O)NC1=CC(=C(OC2=C(F)C=C(F)C=C2)C=C1)\C3=C\N(C)C(=O)C4=C3C=C[NH]4 | 493 | 416 | 463 | 13.2 | 10.5 | 5.9
COc1ccc(-c2nc(N3CCOCC3)c3sc(CN(C)c4ncc(C(=O)NO)cn4)cc3n2)cn1 | 281 | 211 | 285 | 0.186 | 0.0417 | 0.059
CC(N[C@H]1CCCC[C@@H]1NC(=O)c1ccc(Cl)cc1)c1cccc2ccccc12 (stereo partly drawn) | 550 | 432 | 422 | 23.5 | 33.2 | 18.6
CN(C)C/C=C/C(=O)Nc1ccc(C(=O)Nc2cccc(Nc3ncc(Cl)c(-c4c[nH]c5ccccc45)n3)c2)cc1 | 275 | 363 | 406 | 0.332 | 0.661 | 1.48
COC(=O)C/1=C(C)/N/C(=C(\C1C2=CC(=CC=C2)[N+]([O-])=O)C(=O)OCCCN3CCC(CC3)(C4=CC=CC=C4)C5=CC=CC=C5)C (stereo not drawn) | 374 | 426 | 465 | 16.6 | 13.2 | 7.42
O=C(NO)c1cnc(NC2(c3ccccc3)CC2)nc1 | 499 | 423 | 465 | 16.6 | 11.8 | 5.25
c1cncc(CN2CCC(n3ncc4c(N5CCOCC5)nc(-c5ccc6[nH]ccc6c5)nc43)CC2)c1 | 472 | 442 | 446 | 14.8 | 20.9 | 16.6
COc1cc(C)c(Sc2cnc(NC(=O)c3ccc(CNC(C)C(C)(C)C)cc3)s2)cc1C(=O)N1CCN(C(C)=O)CC1 (stereo not drawn) | 443 | 440 | 354 | 16.6 | 18.6 | 9.34
CC[C@@]1(O)C(=O)OC/C2=C1/C=C3\N(CC4=C5[C@@H](N)CCC6=C5C(=CC(=C6C)F)N=C34)C2=O | 486 | 388 | 437 | 2.35 | 2.09 | 3.72
C[C@@H]1C[C@H]2[C@@H]3\C=C(C)/C4=C/C5=C(C[C@]4(C)[C@H]3[C@@H](O)C[C@]2(C)[C@@]1(O)C(=O)CO)C=N[N]5C6=CC=CC=C6 | 563 | 435 | 474 | 23.5 | 26.3 | 11.8
CCN(CC)CCNC(=O)c1ccc2nc(-c3ccccc3)c(-c3ccc(CN4CCC(n5c(=O)[nH]c6ccccc65)CC4)cc3)nc2c1 | 479 | 444 | 440 | 7.42 | 9.34 | 9.34
CC[S+](=O)([O-])c1cccc(-c2cc(C(=O)NC3CCN(C)CC3)c(C)c3[nH]c4ncc(C)cc4c23)c1 | 543 | 500 | 545 | 10.5 | 37.2 | 20.9
C=CC(=O)N1CCC(Oc2cc3c(Nc4ccc(Cl)c(Cl)c4F)ncnc3cc2OC)CC1 | 532 | 400 | 440 | 20.9 | 4.68 | 20.9
CCc1ccc(OCc2ccccc2C(=O)Nc2ccc3nc(C)cc(N)c3c2)cc1 | 513 | 342 | 482 | 6.61 | 10.5 | 8.33

SMILES | area under concentration-response curve [1] | area under concentration-response curve [2] | area under concentration-response curve [3] | AC50 viability [4] [µM] | AC50 viability [5] [µM] | AC50 viability [6] [µM]
Cc1nc(Nc2n[nH]c3c2CN(C(=O)N[C@H](CN(C)C)c2ccccc2)C3(C)C)c2sccc2n1 | 442 | 433 | 462 | 5.25 | 9.34 | 9.34
C[C@@H](NCc1cc2ccccc2[nH]1)c1cccc2ccccc12 | 479 | 428 | 428 | 20.9 | 20.9 | 23.5
C=C1C(=O)O[C@@H]2[C@H]3O[C@]3(C)CC/C=C(\C)CC[C@@H]12 | 522 | 375 | 497 | 7.42 | 14.8 | 9.34
CC(C)C1=N[N](C\2=C1C(=O)N\C(=N2)CC3=CC=C(OCCO)C=C3)C4=C(Cl)C=CC=C4Cl | 183 | 241 | 289 | 0.0209 | 0.0332 | 0.0833
C[C@H]([C@H]1C\C(=C(CO)/C(=O)O1)C)[C@H]2CC[C@H]3[C@@H]4C[C@H]5O[C@]56[C@@H](O)\C=C/C(=O)[C@]6(C)[C@H]4CC[C@]23C | 393 | 270 | 401 | 0.468 | 1.48 | 1.18
COc1cc2c(Nc3ccc(Cl)c(Cl)c3F)ncnc2cc1OC[C@@H]1C[C@@H]2CN(C)C[C@@H]2C1 | 449 | 407 | 430 | 13.2 | 9.34 | 14.8
C=CC(=O)Nc1cccc(Nc2nc(Nc3ccc(NC4CN(CCF)C4)cc3OC)ncc2C(F)(F)F)c1 | 386 | 398 | 446 | 14.8 | 9.34 | 8.33
COC(=O)Nc1cc(Nc2cc(NC3CC3)c3ncc(C#N)n3n2)c(Cl)c(N2CCN(C)CC2)c1 | 506 | 466 | 443 | 6.61 | 6.61 | 2.63
CC(C)C[C@H](NC(=O)[C@H](CCc1ccccc1)NC(=O)CN1CCOCC1)C(=O)N[C@@H](Cc1ccccc1)C(=O)N[C@@H](CC(C)C)C(=O)[C@@]1(C)CO1 | 256 | 302 | 359 | 0.0235 | 0.186 | 0.166
O=C1c2c(O)ccc(O)c2C(=O)c2c(NCCNCCO)ccc(NCCNCCO)c21 | 512 | 458 | 514 | 9.34 | 16.6 | 14.8
CN(C)c1cc2c(cc1Sc1nc3c(N)nccc3n1CCNCC(C)(C)C)OCO2 | 499 | 391 | 467 | 2.95 | 2.95 | 2.35
CCC(C)SSc1ncc[nH]1 (stereo not drawn) | 507 | 503 | 491 | 20.9 | 33.2 | 23.5
C[N]1N=C(C)C2=C1OC(=C(/C#N)C2C3=CC=C(C=C3)C(F)(F)F)/N (stereo not drawn) | 422 | 460 | 479 | 18.6 | 18.6 | 18.6
CCCCCCCOc1ccc(CCC(N)(CO)CO)cc1C(F)(F)F | 553 | 446 | 466 | 16.6 | 14.8 | 9.34
CN(C)Cc1c(C(=O)NCCOc2ccc(C(=O)NO)cc2)oc2ccccc12 | 425 | 412 | 412 | 1.48 | 1.48 | 1.32
Cn1cc(-c2ccc([S+](=O)([O-])n3ccc(/C=C/C(=O)Nc4ccccc4N)c3)cc2)cn1 | 464 | 377 | 352 | 9.34 | 13.2 | 5.25
ClC/1=C(NCCN2CCOCC2)/C(=O)C3=C(C=CC=N3)C1=O | 409 | 387 | 440 | 8.33 | 2.35 | 5.9
C=CC(=O)Nc1cc2c(Nc3ccc(F)c(Cl)c3)ncnc2cc1C#CC(C)(C)N1CCN(C)CC1 | 520 | 307 | 477 | 7.42 | 10.5 | 7.42
C[C@@H]\1CC(=O)N\N=C1C2=CC=C(NN=C(C#N)C#N)C=C2 | 425 | 375 | 363 | 16.6 | 11.8 | –
O=C(CCCCCCC(=O)Nc1ccc([C@H]2O[C@@H](CSc3nc(-c4ccccc4)c(-c4ccccc4)o3)C[C@@H](c3ccc(CO)cc3)O2)cc1)NO | 573 | 488 | 492 | 3.4 | 2.7 | –
